Experiments:
NRK-49F cells [1] = assay: TGF-β1-induced activation of renal interstitial fibroblasts (immunoblot); type: cell-based, rat; conditions: 2 ng/ml TGF-β1, 24 h
Description: (§1) Cell Culture and Treatments. NRK-49F cells were cultured in Dulbecco's modified eagle's medium (DMEM) (Sigma-Aldrich, St. Louis, Mo.) containing 5% fetal bovine serum (FBS), 0.5% penicillin and streptomycin in an atmosphere of 5% CO2 and 95% air at 37° C. […] For TGF-β1 treatment, NRK-49F were starved for 24 h by incubation with 0.5% FBS containing DMEM and then exposed to TGF-β1 (0.5-2 ng/ml) for 24 h.
(§2) Immunoblot Analysis. Immunoblot analysis of NRK-49F cells and tissue samples were conducted as described previously. The densitometry analysis of immunoblot results was conducted by using NIH Image software (National Institutes of Health, Bethesda, Md.).

obstructive kidney (UUO) = assay: UUO obstructive nephropathy model, single dose of suramin immediately after ureteral ligation; type: in vivo, mouse
Description: UUO and Remnant Kidney Models and Suramin Treatment. The UUO model was established in male C57 back mice that weighed 20-25 g (Jackson Laboratory, Bar Harbor, Me.) as described in our previous study. Briefly, the abdominal cavity was exposed via a midline incision and the left ureter was isolated and ligated. The contralateral kidney was used as controls. […] Six mice were used in each group.
as §2
Immunofluorescent and Immunohistochemical Staining Immunofluorescent and immunohistochemical staining was performed according to the procedure described in our previous studies. For assessment of renal fibrosis, masson trichrome staining was performed according to the protocol provided by the manufacture (Sigma, St. Louis, Mo.). The collagen tissue area (blue color) was quantitatively measured using Image Pro-Plus software (Media-Cybernetics, Silver Spring, Md., USA) by drawing a line around the perimeter of positive staining area, and the average ratio to each microscopic field (400×) was calculated and graphed.
Quantitative Real-Time PCR. The procedure for quantitative qRT-PCR and the primers used for all measurements have been described previously. Briefly, total RNA from mouse kidney tissue was extracted using RNeasy Kit (QIAGEN, Valencia, Calif.). RNA (1 μg) was reverse transcribed using the AMV First Strand cDNA synthesis kit (Roche Diagnostics Corporation, Indianapolis, Ind.) and random oligodeoxynucleotide primers. Then, real time qRT-PCR amplifications were performed. Relative mRNA abundance was determined from the nanogram ratios of specific mRNA to 18S ribosomal RNA measured in the same samples, and fold change was calculated relative to the group of sham-operated mice with vehicle treatment. Template-free reactions for each pair of primers were also included as controls.

remnant kidney = assay: Remnant kidney model (5/6 nephrectomy), suramin treatment; type: in vivo, rat
From the text: The remnant kidney model was created in male Sprague-Dawley rats that weighed 180 to 200 g (Charles River Laboratories, Wilmington, Mass.). 5/6 of normal renal mass was surgically ablated according to our previous protocols. Briefly, 20 animals underwent subtotal nephrectomy involving right subcapsular nephrectomy and infarction of approximately two-thirds of the left kidney by ligation of the posterior and one or two anterior extrarenal branches of the renal artery. In addition, 12 rats underwent a sham operation (laparotomy and manipulation of the renal pedicles). On the second week after surgery, rats were randomly divided into suramin treatment and non-treatment groups. […] 24-hour urine samples were collected in metabolic cages at day 0 and weekly for the determination of urinary levels of protein. Blood was taken weekly for the measurement of serum creatinine. At 28 days after surgery, mean blood pressure was measured, and then all animals were sacrificed and kidneys were collected for further analysis. Assessment of Renal Function and Measurement of Blood Pressure. Urinary protein concentrations were determined by using the colorimetric Lowry assay. Serum creatinine was analyzed using a creatinine kit (Sigma). Mean blood pressure was determined via a catheter inserted into the femoral artery attached to the Transonic Systems pressure transducer (Transonic Systems Inc. Ithaca, N.Y.) in anesthetized rats at the end of experiment. Immunoblot Analysis. Immunoblot analysis of NRK-49F cells and tissue samples were conducted as described previously. The densitometry analysis of immunoblot results was conducted by using NIH Image software (National Institutes of Health, Bethesda, Md.). Immunofluorescent and Immunohistochemical Staining Immunofluorescent and immunohistochemical staining was performed according to the procedure described in our previous studies. For assessment of renal fibrosis, masson trichrome staining was performed according to the protocol provided by the manufacture (Sigma, St. Louis, Mo.). The collagen tissue area (blue color) was quantitatively measured using Image Pro-Plus software (Media-Cybernetics, Silver Spring, Md., USA) by drawing a line around the perimeter of positive staining area, and the average ratio to each microscopic field (400×) was calculated and graphed.

NRK-49F cells [2] = assay: Serum (5% FBS)-stimulated activation and kinase phosphorylation in renal interstitial fibroblasts (immunoblot); type: cell-based, rat; conditions: 36 h, suramin 100 μM
Description: as §1, §2

[3] = 1 mg/kg i.p. single dose, day 7
[4] = 5 mg/kg i.p. single dose, day 7
[5] = 10 mg/kg i.p. single dose, day 7
[6] = 20 mg/kg i.p. single dose, 21 days after UUO injury
[7] = 10 mg/kg once per week for two weeks
[8] = 10 mg/kg once per week for two weeks, from week 2 after surgery

For `Cc1ccc(C(=O)Nc2ccc(S(=O)(=O)O)c3cc(S(=O)(=O)O)cc(S(=O)(=O)O)c23)cc1NC(=O)c1cccc(NC(=O)Nc2cccc(C(=O)Nc3cc(C(=O)Nc4ccc(S(=O)(=O)O)c5cc(S(=O)(=O)O)cc(S(=O)(=O)O)c45)ccc3C)c2)c1` [Suramin], the “TGF-β1 induced phosphorylation of Smad2” value (NRK-49F cells [1]) was “abolished”, the “TGF-β1 induced phosphorylation of Smad3” value (NRK-49F cells [1]) was “abolished” and the TGF-β1-induced fibronectin expression (NRK-49F cells [1]; in the presence of suramin) was “abolished”. For the same compound, the “TGF-β1-induced α-SMA expression” value (NRK-49F cells [1]; in the presence of suramin) was “suppressed to the basal level”, the “fibronectin expression in kidney” value (obstructive kidney (UUO); [3]) was “slight reduction” and the “α-SMA expression in kidney” value (obstructive kidney (UUO); [3]) was “slight reduction”. For the same compound, the “fibronectin expression in kidney” value (obstructive kidney (UUO); [4]) was “further inhibition”, the “α-SMA expression in kidney” value (obstructive kidney (UUO); [4]) was “further inhibition” and the “collagen 1 expression in kidney” value (obstructive kidney (UUO); 5 mg/kg single dose, day 7) was “observed effect”. For the same compound, the “fibronectin expression in kidney” value (obstructive kidney (UUO); [5]) was “complete blockade”, the “α-SMA expression in kidney” value (obstructive kidney (UUO); [5]) was “significant, but incomplete, suppression” and the “collagen 1 expression in kidney” value (obstructive kidney (UUO); 10 mg/kg single dose, day 7) was “greater inhibition”. The “suppression of fibronectin expression in kidney” value (obstructive kidney (UUO); [6]) was “approximately 50%”, the “suppression of α-SMA expression in kidney” value (obstructive kidney (UUO); [6]) was “approximately 50%” and the EGF receptor phosphorylation (obstructive kidney (UUO); 20 mg/kg single dose, day 7) was “abolished”. For the same compound, the “ICAM-1 mRNA expression” value (obstructive kidney (UUO); 20 mg/kg single dose, day 7) was “decreased”, the “IL-1β mRNA expression” value (obstructive kidney (UUO); 20 mg/kg single dose, day 7) was “decreased” and the PDGF receptor phosphorylation (obstructive kidney (UUO); 20 mg/kg single dose, day 7) was “abolished”. For the same compound, the “TGF-β1 mRNA expression reduced to (real-time PCR)” value (obstructive kidney (UUO); 20 mg/kg single dose, day 7) was 45%, the “TGF-β1 type I receptor mRNA expression” value (obstructive kidney (UUO); 20 mg/kg single dose, day 7) was “suppressed its basal expression” and the “TGF-β type II receptor mRNA expression reduced to (real-time PCR)” value (obstructive kidney (UUO); 20 mg/kg single dose, day 7) was 94%. For the same compound, the “TNF-α mRNA expression” value (obstructive kidney (UUO); 20 mg/kg single dose, day 7) was “decreased”, the “UUO injury-induced phosphorylation of Smad2” value (obstructive kidney (UUO); 20 mg/kg single dose, day 7) was “abolished” and the “UUO injury-induced phosphorylation of Smad3” value (obstructive kidney (UUO); 20 mg/kg single dose, day 7) was “abolished”. The “collagen 1 expression in kidney” value (obstructive kidney (UUO); 20 mg/kg single dose, day 7) was “reduced its expression to the basal level”, the “expression level of total ERK1/2” value (obstructive kidney (UUO); 20 mg/kg single dose, day 7) was “did not affect” and the “expression level of total STAT3” value (obstructive kidney (UUO); 20 mg/kg single dose, day 7) was “did not affect”. For the same compound, the “expression of total EGF receptor” value (obstructive kidney (UUO); 20 mg/kg single dose, day 7) was “did not have an inhibitory effect”, the “expression of total PDGF receptor” value (obstructive kidney (UUO); 20 mg/kg single dose, day 7) was “did not have an inhibitory effect” and the “expression of total Smad2” value (obstructive kidney (UUO); 20 mg/kg single dose, day 7) was “not affected”. The “expression of total Smad3” value (obstructive kidney (UUO); 20 mg/kg single dose, day 7) was “not affected”, the “leukocyte infiltration (naphthol-AS-D-chloroacetate esterase staining)” value (obstructive kidney (UUO); 20 mg/kg single dose, day 7) was “reduced leukocyte infiltration to basal levels” and the “morphological lesions and interstitial fibrosis (masson trichrome staining)” value (obstructive kidney (UUO); 20 mg/kg single dose, day 7) was “obvious attenuation”. For the same compound, the “phosphorylation of ERK1/2” value (obstructive kidney (UUO); 20 mg/kg single dose, day 7) was “abolished”, the “phosphorylation of STAT3” value (obstructive kidney (UUO); 20 mg/kg single dose, day 7) was “abolished” and the “collagen 1 expression in kidney” value (obstructive kidney (UUO); 20 mg/kg single dose, day 21) was “partially suppressed”. For the same compound, the “α-SMA expression in kidney” value (obstructive kidney (UUO); 20 mg/kg vs 10 mg/kg i.p. single dose, day 7) was “did not further reduce”, the “effective doses of suramin” value (obstructive kidney (UUO); applicant's UUO and remnant kidney studies) was 5 to 10 mg/kg and the “de novo expression of fibronectin in the remnant kidney” value (remnant kidney; [7]) was “abolished”. The “de novo expression of α-SMA in the remnant kidney” value (remnant kidney; [7]) was “abolished”, the “increased expression of type 1 collagen in the remnant kidney” value (remnant kidney; [7]) was “abolished” and the 24-hour proteinuria (remnant kidney; [8]) was “significantly reduced”. For the same compound, the serum creatinine (remnant kidney; [8]) was “significantly reduced”, the “hypertension (mean blood pressure)” value (remnant kidney; 10 mg/kg once per week for two weeks, day 28) was “not significantly affected” and the “kidney histology (glomerular and tubulointerstitial damage)” value (remnant kidney; 10 mg/kg once per week for two weeks, week 4) was “preserved kidney architecture and prevented the glomerular and tubulointerstitial damage”. The “pathological changes in the kidney” value (remnant kidney; suramin alone-treated (sham-operated) animals) was “no obvious pathological changes”, the “phosphorylation of EGFR” value (NRK-49F cells [2]) was “complete inhibition” and the “phosphorylation of ERK1/2” value (NRK-49F cells [2]) was “complete inhibition”. For the same compound, the “phosphorylation of PDGFR” value (NRK-49F cells [2]) was “complete inhibition”, the “phosphorylation of STAT3” value (NRK-49F cells [2]) was “complete inhibition” and the serum-induced fibronectin expression (NRK-49F cells [2]) was “complete blockade”. For the same compound, the “serum-induced α-SMA expression” value (NRK-49F cells [2]) was “complete blockade”.

From patent US9572787B2, “Inhibition of renal fibrosis” (Rhode Island Hospital, priority 2011, dated 2017)
